Entries after “also recorded” stand apart in the source; their conditions may differ. Where no end group is shown, it is not given here. The star is where a group is joined. Boc = CC(C)(C)OC(=O)*; For = O=C*

The values below come from patent publication US8497352B2, “Use of Wnt5-α peptide derivates for the treatment of melanoma and gastric cancer” (Wntresearch AB, priority 2008, dated 2013).

For experiment [1], the system named is HTB63 melanoma cells. Description: Wound-healing assay (migration), HTB63 cells. The experiment is classed as cell-based, human. The method, then: (§1) Cells were plated in 12 well plates and allowed to grow into a confluent layer in complete RPMI (for A2058 cells) or complete McCoy's 5A medium (for HTB63 cells). As indicated, cells were pre-incubated with the Box5 peptide (100 μM) or control solvent for 40 min with continuous agitation. A wound was then inflicted by making a scratch through the confluent layer of cells with a pipette tip. During the migration period of the assay, cells were incubated either in serum-free medium or in the case of HTB63 cells in their own serum-free-conditioned medium collected from cells cultured for 48 h and used within 2 days after collection. The exact conditions of each experiment are described above. To avoid loss of activity, cell medium was changed after 24 hours. A picture for each scratch was taken in the same area of cells at 0, 16, 24, 40 and 48 hours, and wound healing was measured as percentage of wound area closed. For each experimental condition wound healing was analysed in triplicate. All data were based on 3 to 8 separate experiments as indicated.

Experiment [2] concerns HTB63 melanoma cells. Description: BD Matrigel invasion chamber assay, HTB63 cells. The experiment is classed as cell-based, human. The method, then:
(§2) Cell invasion was analyzed using the BD Matrigel™ invasion chamber assay (BD Biosciences, Bedford, Mass.). Prior to the initiation of each experiment, the cells were detached with Versene and re-suspended as single cells in serum-free RPMI medium. As indicated, cells were pre-incubated with the Box5 peptide (100 μM) or control solvent for 40 min with continuous agitation. An aliquot of the cell suspension containing 25,000 cells and 100 μM Box5 or control solvent was then added to the upper transwell chamber, and the lower chamber was filled with serum-containing (10%) medium. The invasion chambers were shaken horizontally for 5 min to ensure even distribution of the cells in suspension and subsequently across the membrane surface. The cells were allowed to invade for the periods of time indicated at 37° C. in a humidified atmosphere of 5% CO2. The medium was discarded and cells were fixed in 4% paraformaldehyde for 10 min. The cells were stained with 0.5% crystal violet in 20% methanol for 10 min and the non-invading cells on the inner side of the membrane were removed with a cotton-tipped applicator. The membrane was cut out of the chamber using a scalpel blade and the stained cells on the lower chamber side of the membrane were counted.

Experiment [3] concerns Wnt-5a protein expression. Nature of the experiment: Wnt-5a protein expression in HTB63 cells, Western blot. It counts as cell-based, human. The method, then:
(§3) The cells were either directly lysed in 1× Laemmli buffer containing DTT and boiled for 10 min, or lysed in buffer containing 50 mM Tris-HCl (pH 7.5), 1% Triton X-100, 100 mM NaCl, 10 mM MgCl2, 20% glycerol, 1 mM Na3VO4, and protease inhibitors (20 μg/ml aprotinin, 1 μg/ml leupeptin, 2.5 mM benzamidine, and 2 mM pefabloc). Cell treated with lysis buffer were centrifuged at 15,000 rpm for 5 min at 4° C. The protein content in each sample was determined and adjusted to ensure equal loading of protein in each lane. Thereafter, 50 mM DTT and 5× concentrated Laemmli buffer was added and the samples boiled for 5 min. The samples were separated by SDS polyacrylamide gel electrophoresis and subsequently transferred to PVDF membranes. For immunoblotting the membranes were blocked in PBS supplemented with 0.2% Tween 20 and 1% non-fat milk for Wnt-5a or 3% non-fat milk as for all other antibodies for 1 h. Thereafter the membranes were incubated for 1 h at room temperature or overnight at 4° C. with the indicated primary Ab (1:25,000 for β-actin; 1:1,000 for Wnt-5a and 1:1,000 for TGF-β1) in 2% non-fat milk or 1.5% BSA. After extensive washing in PBS with 0.2% Tween, the membranes were incubated for 1 h with a horseradish peroxidase-conjugated secondary Ab in 2% non-fat milk or 1.5% BSA and again extensively washed. Finally, the Ab-antigen complexes were detected using enhanced chemiluminescence. […]

A further experiment has as its system breast cancer metastasis. The conditions noted are these: mouse model; cited from earlier work.
The next experiment concerns breast cancer cell. The conditions noted are these: breast tumor cells lacking endogenous Wnt-5a; cited from earlier work.
For experiment [4], the system named is A2058 melanoma cells. Nature of the experiment: Wound-healing assay (migration), A2058 cells. It counts as cell-based, human. The method, then: as §1
A further experiment deals with PKC. Description: MARCKS phosphorylation (PKC activity) in A2058 cells, Western blot. The experiment is classed as cell-based, human. Conditions: 100 μM Box5 overnight, rWnt-5a 0.2 μg/ml. The method, then:
as §3, with “Thereafter the membranes were incubated for 1 h at room temperature or overnight at 4° C. with the indicated primary Ab (1:25,000 for β-actin; 1:1,000 for Wnt-5a and 1:1,000 for TGF-β1) in 2% non-fat milk or 1.5% BSA. After extensive washing in PBS with 0.2% Tween, the membranes were incubated for 1 h with a horseradish peroxidase-conjugated secondary Ab in 2% non-fat milk or 1.5% BSA and again extensively washed.” left out
In the present study the level of PKC auto-phosphorylation (Weeraratna et al., 2002, Dissanayake et al., 2007) was not estimated since its relation to PKC kinase activity is unclear. Instead the effects of Wnt-5a and Box5 on the phosphorylation of the endogenous PKC substrate MARCKS were analyzed as a direct means of estimating the activity level of PKC in the melanoma cells. […]
Background: A western blot detects proteins with antibodies after separation by electrophoresis.

The subject of experiment [5] is Wnt-5a-induced Ca^2+ signaling. Nature of the experiment: Determination of cytosolic free calcium levels (fura-2) in A2058 cells. It counts as cell-based, human. The method, then: Cells grown on a glass cover slip were incubated with 4 μM fura-2/AM in culture medium for 30 minutes at 37° C. (Dejmek et al., 2006). After fura-2 loading of the cells, the cover slips were washed and mounted in a specially designed chamber to which was added a calcium-containing medium (136 mM NaCl, 4.7 mM KCl, 1.2 mM MgSO4, 1.1 mM CaCl2, 1.2 KH2PO4, 5 mM NaHCO3, 5.5 mM glucose and 20 mM Hepes, pH 7.4). The chamber was then placed in a system consisting of a NIKON Diaphot microscope connected to a Photon Technology International (PTI) imaging system. The cells were first allowed to rest for 10 minutes before any stimulation was performed. Fura-2 fluorescence was then recorded continuously from the cells before and after the stimulations with either Wnt-5a, endothelin-1 or charbacol (as indicated in the legend to FIG. 8) using an excitation wavelength rapidly alternating between 340 and 380 nm, while the emission wavelength was set at 510 nm. The fluorescence intensity ratios (340/380 nm) were subsequently calculated and analyzed using the PTI Image Master Software. Statistical analysis—The Student's t-test for unpaired samples was used to analyze differences in the experiments, where *=p<0.05, **=p<0.01, and ***=p<0.001

The subject of experiment [6] is A2058 melanoma cells. Description: BD Matrigel invasion chamber assay, A2058 cells. The experiment is classed as cell-based, human. The method, then:
as §2

For `NC(=O)c1ccc(-c2nc(-c3ccc4c(c3)OCO4)c(-c3ccccn3)[nH]2)cc1` [SB431542], in the experiment on HTB63 melanoma cells [1] (10 μM SB431542, serum-free medium), the “Effect on migration of HTB63 cells” value is on record as “inhibited”. The “Effect on migration of HTB63 cells in the invasion assay” value with HTB63 melanoma cells [2] (10 μM SB431542, 24 hours) is listed as “stimulated”. In addition, the “Endogenous Wnt-5a protein expression in HTB63 cells” value was “significantly reduced” in [3] (10 μM SB431542, 4 days) and “almost abolished” in [3] (10 μM SB431542, 5 days).
“Foxy5: Met-Asp-Gly-Cys-Glu-Leu hexapeptide formylated at the N-terminal Met, agonist of Wnt-5a signalling (For-MDGCEL)”: in the experiment on breast cancer metastasis, the Breast cancer metastasis result is “inhibits”. Moreover, the “Signaling and inhibition of breast cancer cell migration” value in the experiment with breast cancer cell is given as “mimic the effects of Wnt-5a”. Besides, the “Effect on migration of A2058 cells” value in the experiment with A2058 melanoma cells [4] (50 μM Foxy5, 0, 16, 24, 40 and 48 hours) was “promotes”.
As to “t-boc-Met-Asp-Gly-Cys-Glu-Leu (Boc-MDGCEL) [Box5, novel Wnt-5a-derived N-butyloxycarbonyl hexapeptide (Met-Asp-Gly-Cys-Glu-Leu), Wnt-5a antagonist]”, the “Effect on Wnt-5a-induced MARCKS phosphorylation” value in the experiment with PKC was “inhibited; also recorded: abolished”. For the same molecule, the “Effect on migration of HTB63 cells” value in the experiment on HTB63 melanoma cells [1] (100 μM peptide in conditioned medium containing secreted Wnt-5a) is given as “inhibits”. For the same molecule, the “Effect on Wnt-5a-induced migration of A2058 cells” value in the experiment on A2058 melanoma cells [4] (100 μM Box5, 0.2 μg/ml Wnt-5a, wound area closed over 0-48 hours) is on record as “abolished”. The “Effect on intrinsic (basal) migration of A2058 cells” value in the experiment on A2058 melanoma cells [4] (100 μM Box5, no Wnt-5a, wound area closed over 0-48 hours) is “no effect”. Also, the “Effect on TGF-β1-induced migration of A2058 cells” value in the experiment on A2058 melanoma cells [4] (100 μM Box5 pre-incubated 40 minutes, 5 ng/ml TGF-β1) is “abolished; also recorded: blocked”. The “Effect on invasion of HTB63 cells (endogenous Wnt-5a)” value in the experiment on HTB63 melanoma cells [2] (100 μM Box5, 24 hours) is “inhibit”. Besides, in experiment [5] (100 μM Box5, charbacol 5 μM), the “Effect on charbacol-induced Ca^2+ signaling” value is reported as “no significant effect”. Also, in experiment [5] (100 μM Box5, endothelin-1 10 nM), the “Effect on endothelin-1-induced Ca^2+ signaling” value is reported as “no significant effect”. In experiment [5] (100 μM Box5 overnight pre-incubation, 0.1 μg/ml Wnt-5a), the “Inhibition of Wnt-5a-induced Ca^2+ signal (peak values)” value was “more than 70%”. The “Effect on Wnt-5a-induced invasion of A2058 cells” value in the experiment with A2058 melanoma cells [6] (100 μM Box5, 0.2 μg/ml Wnt-5a, 24 hours) is given as “abolished”. Moreover, the “Effect on basal invasion of A2058 cells” value with A2058 melanoma cells [6] (100 μM Box5, 24 hours) is recorded as “no effect”.
